# Publication PMC12300679, “Taurine-Based Hybrid Drugs as Potential Anticancer Therapeutic Agents: In Vitro, In Vivo Evaluations” (Pharmaceuticals, 2025)
# Legend:
# [1] = system: M-HeLa human cervix carcinoma cells; assay: MTT cytotoxicity assay, M-HeLa; type: cell-based; conditions: for IC50: Homo sapiens, M-HeLa, tested at 1–200 µM, three independent experiments; for IC50 / cytotoxicity against M-HeLa (in words): MTT; for SI (selectivity index) M-HeLa: M-HeLa versus normal WI38 cells
# [2] = system: HuTu 80 human duodenal adenocarcinoma cells; assay: MTT cytotoxicity assay, HuTu 80; type: cell-based; conditions: for IC50: Homo sapiens, HuTu80, MTT, tested at 1–200 µM, three independent experiments; for SI (selectivity index) HuTu 80: HuTu 80 versus normal WI38 cells
# [3] = system: WI38 human fibroblast cell line; assay: MTT cytotoxicity assay, normal WI38 cells; type: cell-based; conditions: WI-38, tested at 1–200 µM, three independent experiments
# [4] = system: HL-60 human promyelocytic leukemia cells; assay: MTT cytotoxicity assay, HL-60; type: cell-based; conditions: for IC50: Homo sapiens, HL-60, MTT, tested at 1–200 µM, three independent experiments; for SI (selectivity index) HL-60: HL-60 versus normal RPMI 1788 leukocytes
# [5] = system: lymphatic leukemia P388; assay: Antitumor activity, syngeneic lymphatic leukemia P388 in BDF1 mice; type: in vivo, mouse; conditions: for ILS / MST ± SD: i.p. days 1, 5, 9; for antileukemia / antitumor effect (in words): doses under study, i.p.
# Experimental: At the next stage, we evaluated them in vivo using syngeneic mouse leukosis P388, which plays an important role in the screening of potential antitumor agents. The antitumor effect of the synthesized compounds was evaluated according to the increase in the average lifespan (ILS, %) of tumor-bearing animals. Due to the fact that physiologically relevant solvent, such as water or physiological solution [49], can be used as a solvent for parenteral administration of substances, we chose only water-soluble compounds 4o–r for the in vivo study.
# As model tumors for the determination of antitumor activity of phosphorus-containing derivatives of pyrrolidine, the strain of lymphatic leukemia P388 was chosen. Lymphatic leukemia P388 was transplanted into hybrid mice of the BDF1 line intraperitoneally in accordance with the standard procedure. The inoculum contained 10^6 tumor cells in isotonic solution of NaCl. […] In each experiment, the control group was represented by the cohort of animals with tumors not treated with the compounds. Each group consisted of six mice. The animals were inspected daily over at least 60 days. The effectiveness of therapy was evaluated by the number of surviving animals, as well as by the increase in the average lifespan (ILS%), which was evaluated as the percentage of the mean survival time (MST) of the treated group (t) as compared to the control group (c): […].
# [6] = system: RPMI 1788 human healthy donor peripheral blood leukocytes; assay: MTT cytotoxicity assay, normal RPMI 1788 cells; type: cell-based; conditions: tested at 1–200 µM, three independent experiments, read-out: IC50 RPMI 1788 (normal cell line)
# [7] = Acute in vivo toxicity, single intraperitoneal administration; conditions: mouse, ip, BDF1 mice, Behrens method, 14 d observation, read-out: half-lethal toxic dose (LD50)
# Experimental: Firstly, acute in vivo toxicity was determined in order to calculate doses for the determination of the potential antileukemia activity. An acute toxicity study was carried out on the mice of the BDF1 line weighing from 20 to 24 g. In the experiment, clinically healthy animals were used, which were treated under the same conditions. To evaluate LD50, the toxicity gain curve was plotted against increasing doses (the Behrens method) (Figure 3).
# Acute toxicity was evaluated using mice of the BDF1 line weighing from 20 to 24 g. In the experiment, clinically healthy animals treated under the same conditions were used. A total of 4–6 animals were used for each dose. All experiments on animals were carried out according to the Nursery and Vivarium, Russian Academy of Sciences Federal Research Center of Problems of Chemical Physics and Medicinal Chemistry (FRC PCPMC RAS) and in accordance with the rules established by the Commission on Bioethics of the FRC PCPMC RAS. One day after administration of the specimen, the animals were continuously treated for 4 h. Then, death of animals and clinical pattern of intoxication were evaluated once a day for 14 d. The test compounds were added intraperitoneally once. The individual volume of each animal was calculated from the mass of the body and dose of the test compound.
# The lethal dose (LD100) for all animals and the maximum tolerable dose (MTD) values were also evaluated. Results of the studies are given in the form of tables and graphs.
# [8] = dose 12 (table prints no unit; b71 mg/kg)
# [9] = dose 17 (table prints no unit; b71 mg/kg)
# [10] = dose 26 (table prints no unit; b71 mg/kg)
# [11] = dose 37 (table prints no unit; b71 mg/kg)
# [12] = dose 55 (table prints no unit; b71 mg/kg)
# [13] = dose 16 (table prints no unit; b71 mg/kg)
# [14] = dose 22 (table prints no unit; b71 mg/kg)
# [15] = dose 34 (table prints no unit; b71 mg/kg)
# [16] = dose 48 (table prints no unit; b71 mg/kg)
# [17] = dose 72 (table prints no unit; b71 mg/kg)
SMILES,IC50 [1],SI (selectivity index) M-HeLa [1],IC50 [2],SI (selectivity index) HuTu 80 [2],IC50 [3],other results
"O=c1[nH]cc(F)c(=O)[nH]1 [5-Fluorouracil, reference compound]",75.6 ± 6.1 µM,- ((-)—no selectivity),65.2 ± 5.5 µM,1,62 ± 4.8 µM,–
"O=C1CCN(c2ccccc2)N1C1CCCN1S(=O)(=O)CCN1CCCCC1 (stereo not drawn) [Compound 4b, 1-Phenyl-2-(1-((2-(piperidin-1-yl)ethyl)sulfonyl)pyrrolidin-2-yl)pyrazolidin-3-one]",87 ± 6.8 µM,1,> 100 µM,- ((-)—no selectivity),88.3 ± 7.1 µM,–
"Nc1ncnc2c1ncn2CCS(=O)(=O)N1CCCC1N1C(=O)CCN1c1ccccc1 (stereo not drawn) [Compound 4c, 2-(1-((2-(6-Amino-9H-purin-9-yl)ethyl)sulfonyl)pyrrolidin-2-yl)-1-phenylpyrazolidin-3-one]",> 100 µM,- ((-)—no selectivity),> 100 µM,- ((-)—no selectivity),100 µM,–
"O=C(O)c1cn(C2CC2)c2cc(N3CCN(CCS(=O)(=O)N4CCCC4N4C(=O)CCN4c4ccccc4)CC3)c(F)cc2c1=O (stereo not drawn) [Compound 4l, 1-Cyclopropyl-6-fluoro-4-oxo-7-(4-(2-((2-(5-oxo-2-phenylpyrazolidin-1-yl)pyrrolidin-1-yl)sulfonyl)ethyl)piperazin-1-yl)-1,4-dihydroquinoline-3-carboxylic acid]",85.4 ± 7.5 µM,1.8,> 100 µM,–,154 ± 12 µM,cytotoxicity against M-HeLa (in words) [1]: moderate cytotoxicity
"Cc1c(C2CCCN2S(=O)(=O)CCNCC(=O)O)c(=O)n(-c2ccccc2)n1C (stereo not drawn) [Compound 4m, (2-((2-(1,5-Dimethyl-3-oxo-2-phenyl-2,3-dihydro-1H-pyrazol-4-yl)pyrrolidin-1-yl)sulfonyl)ethyl)glycine]",> 100 µM,–,87 ± 7 µM,>1.1,> 100 µM,–
"CCN(CC)CCS(=O)(=O)N1CCCC1P(=O)(c1ccccc1)c1ccccc1.Cl (stereo not drawn) [Compound 4o, 2-((2-(Diphenylphosphoryl)pyrrolidin-1-yl)sulfonyl)-N,N-diethylethanaminium chloride]",56.7 ± 4.8 µM,1.5,> 100 µM,- ((-)—no selectivity),84.3 ± 7.2 µM,"cytotoxicity against M-HeLa (in words) [1]: moderate cytotoxicity; IC50 [4]: > 100 µM; ILS [5, 8]: 7%; MST ± SD [5, 8]: 10.7 ± 1.0 days; ILS [5, 9]: −5%; MST ± SD [5, 9]: 9.5 ± 0.8 days; ILS [5, 10]: 17%; MST ± SD [5, 10]: 11.7 ± 1.9 days; ILS [5, 11]: 7%; MST ± SD [5, 11]: 10.7 ± 0.9 days; ILS [5, 12]: 5%; MST ± SD [5, 12]: 10.5 ± 1.2 days; antileukemia / antitumor effect (in words) [5]: did not display antitumor effect; IC50 [6]: > 100 µM"
"CCCCN(CCCC)CCS(=O)(=O)N1CCCC1P(=O)(c1ccccc1)c1ccccc1.Cl (stereo not drawn) [Compound 4p, N-Butyl-N-(2-((2-(diphenylphosphoryl)pyrrolidin-1-yl)sulfonyl)ethyl)butan-1-aminium chloride]",57 ± 4.6 µM,1.1,94.4 ± 8.7 µM,- ((-)—no selectivity),63.2 ± 5.7 µM,"LD50 at 14 d [7]: 165 ± 18.2 mg/kg; cytotoxicity against M-HeLa (in words) [1]: moderate cytotoxicity; SI (selectivity index) HL-60 [4]: 2.3; IC50 [4]: 76.7 ± 6.1 µM; ILS [5, 13]: 100%; MST ± SD [5, 13]: 20 ± 3.1 days; ILS [5, 14]: 80%; MST ± SD [5, 14]: 18 ± 3.2 days; ILS [5, 15]: 75%; MST ± SD [5, 15]: 17.5 ± 2.7 days; ILS [5, 16]: 55%; MST ± SD [5, 16]: 15.5 ± 3.4 days; ILS [5, 17]: 42%; MST ± SD [5, 17]: 14.2 ± 2.4 days; antileukemia / antitumor effect (in words) [5]: exhibited antileukemia activity; IC50 [6]: 176 ± 3.4 µM"
"Cl.O=P(c1ccccc1)(c1ccccc1)C1CCCN1S(=O)(=O)CCN1CCOCC1 (stereo not drawn) [Compound 4s, 4-(2-((2-(Diphenylphosphoryl)pyrrolidin-1-yl)sulfonyl)ethyl)morpholin-4-ium chloride]",78.4 ± 6.6 µM,1.2,> 100 µM,- ((-)—no selectivity),91.8 ± 8.4 µM,IC50 [4]: > 100 µM; IC50 [6]: > 100 µM
"Nc1ncnc2c1ncn2CCS(=O)(=O)N1CCCC1P(=O)(c1ccccc1)c1ccccc1 (stereo not drawn) [Compound 4u, (1-((2-(6-Amino-9H-purin-9-yl)ethyl)sulfonyl)pyrrolidin-2-yl)diphenylphosphine oxide]",> 100 µM,–,> 100 µM,–,> 100 µM,–
"O=C(O)CNCCS(=O)(=O)N1CCCC1P(=O)(c1ccccc1)c1ccccc1 (stereo not drawn) [Compound 4v, 2-((2-((2-(Diphenylphosphoryl)pyrrolidin-1-yl)sulfonyl)ethyl)amino)acetic acid]",96.2 ± 8.4 µM,2.2,> 100 µM,–,211 ± 17 µM,–
"O=C(O)[C@@H](NCCS(=O)(=O)N1CCCC1P(=O)(c1ccccc1)c1ccccc1)c1c[nH]c2ccccc12 (stereo partly drawn) [Compound 4x, (2S)-2-((2-((2-(Diphenylphosphoryl)pyrrolidin-1-yl)sulfonyl)ethyl)amino)-2-(1H-indol-3-yl)acetic acid]",98.2 ± 8.3 µM,1.3,> 100 µM,–,128 ± 10 µM,–
"O=P(c1ccccc1)(c1ccccc1)C1CCCN1S(=O)(=O)CCNCCS(=O)(=O)O (stereo not drawn) [Compound 4y, 2-((2-((2-(Diphenylphosphoryl)pyrrolidin-1-yl)sulfonyl)ethyl)amino)ethane-1-sulfonic acid]",62.5 ± 5.3 µM,1.9,100 ± 9.2 µM,1.2,120 ± 9.3 µM,cytotoxicity against M-HeLa (in words) [1]: moderate cytotoxicity
"O=C(O)c1cn(C2CC2)c2cc(N3CCN(CCS(=O)(=O)N4CCCC4P(=O)(c4ccccc4)c4ccccc4)CC3)c(F)cc2c1=O (stereo not drawn) [Compound 4z, 1-Cyclopropyl-7-(4-(2-((2-(diphenylphosphoryl)pyrrolidin-1-yl)sulfonyl)ethyl)piperazin-1-yl)-6-fluoro-4-oxo-1,4-dihydroquinoline-3-carboxylic acid]",85.9 ± 8.2 µM,1.4,64.6 ± 5.1 µM,1.9,123 ± 9.6 µM,–
"COc1cccc2c1C(=O)c1c(O)c3c(c(O)c1C2=O)C[C@@](O)(C(=O)CO)C[C@@H]3O[C@H]1C[C@H](N)[C@H](O)[C@H](C)O1 [Doxorubicin, reference compound]",–,–,–,–,–,SI (selectivity index) HL-60 [4]: 1.1; IC50 [4]: 3 ± 4.7 µM; IC50 [6]: 3.3 ± 6.6 µM
